One assay addresses sigma-2 (σ2) site (Homo sapiens, UniProt Q5BJF2). Particulars: background statement; cited from earlier work.
The test system of assay [1] is mechanical hypersensitivity in SNI mice. Particulars: spared nerve injury (SNI) mice model of neuropathic pain; cited from earlier work.
For another assay, the target named is T1, Human σ1 Receptor (Homo sapiens, UniProt Q99720).
T1 construct: expressed in transfected cells; host or cells: HEK-293
The experiment in a line: Human σ1 receptor radioligand assay ([3H](+)-pentazocine, transfected HEK-293 membranes). Particulars: human σ1, [3H](+)-pentazocine 5 nM, binding expressed as Ki, read-out: Binding σ-1. The protocol:
Human σ1 Receptor Radioligand Assay
Transfected HEK-293 membranes (7 μg) were incubated with 5 nM of [^3H](+)-pentazocine in assay buffer containing Tris-HCl 50 mM at pH 8. NBS (non-specific binding) was measured by adding 10 μM haloperidol. The binding of the test compound was measured at either one concentration (% inhibition at 1 or 10 μM) or five different concentrations to determine affinity values (Ki). Plates were incubated at 37° C. for 120 minutes. After the incubation period, the reaction mix was then transferred to MultiScreen HTS, FC plates (Millipore), filtered and plates were washed 3 times with ice-cold 10 mM Tris-HCL (pH 7.4). Filters were dried and counted at approximately 40% efficiency in a MicroBeta scintillation counter (Perkin-Elmer) using EcoScint liquid scintillation cocktail.

The next assay deals with T2, Human σ2/TMEM97 receptor (Homo sapiens, UniProt Q5BJF2).
T2 construct: expressed in transfected cells; host or cells: HEK-293
Nature of the assay: Binding assay to human σ2/TMEM97 receptor ([3H]-DTG, transfected HEK-293 membranes). To be noted: human σ2/TMEM97, [3H]-DTG 10 nM, binding expressed as Ki, read-out: Binding σ-2. The protocol:
Binding Assay to Human ρ2/TMEM97 Receptor
Transfected HEK-293 membranes (15 μg) were incubated with 10 nM [^3H]-1,3-Di-o-tolylguanidine ( DTG) in assay buffer containing Tris-HCl 50 mM at pH 8.0. NSB (non-specific binding) was measured by adding 10 μM haloperidol. The binding of the test compound was measured at either one concentration (% inhibition at 1 or 10 μM) or five different concentrations to determine affinity values (Ki). Plates were incubated at 25° C. for 120 minutes. After the incubation period, the reaction mix was transferred to MultiScreen HTS, FC plates (Millipore), filtered and washed 3 times with ice-cold 10 mM Tris-HCL (pH 8.0). Filters were dried and counted at approximately 40% efficiency in a MicroBeta scintillation counter (Perkin-Elmer) using EcoScint liquid scintillation cocktail.

T1 sequence (Q99720 whole entry): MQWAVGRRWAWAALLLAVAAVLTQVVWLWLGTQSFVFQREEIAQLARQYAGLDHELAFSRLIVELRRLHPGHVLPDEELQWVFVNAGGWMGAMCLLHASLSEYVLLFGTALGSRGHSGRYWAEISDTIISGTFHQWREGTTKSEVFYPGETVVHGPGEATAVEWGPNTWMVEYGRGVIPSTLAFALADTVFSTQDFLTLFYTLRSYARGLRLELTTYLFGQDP
T2 sequence (Q5BJF2 whole entry): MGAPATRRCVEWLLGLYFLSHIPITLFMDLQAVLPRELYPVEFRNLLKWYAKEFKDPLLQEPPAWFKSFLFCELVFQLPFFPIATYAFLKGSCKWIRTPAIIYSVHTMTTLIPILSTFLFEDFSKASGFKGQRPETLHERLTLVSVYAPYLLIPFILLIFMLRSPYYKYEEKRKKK
sigma-2 (σ2) site, sequence (Q5BJF2 whole entry): as above

Regarding (+)-SKF-10047, the “affinity for the sigma-2 (σ2) site” value at sigma-2 (σ2) site was “micromolar affinity”.

With UKH-1114, the mechanical hypersensitivity entry in assay [1] is “relieved mechanical hypersensitivity”.

As to `FC(F)(F)c1cc(-c2cnn3cc(CN4CCC5(CCOC5)CC4)cnc23)ccn1` [Example 10, 8-((3-(2-(Trifluoromethyl)pyridin-4-yl)pyrazolo[1,5-a]pyrimidin-6-yl)methyl)-2-oxa-8-azaspiro[4.5]decane], the results for the Ki on Human σ1 Receptor and on Human σ2/TMEM97 receptor were < 100 nM and > 1000 nM, respectively.

Take `Cc1cc(-c2cnn3cc(CN4CC5(CCOCC5)C4)cnc23)ccn1` [Example 27, 2-((3-(2-Methylpyridin-4-yl)pyrazolo[1,5-a]pyrimidin-6-yl)methyl)-7-oxa-2-azaspiro[3.5]nonane]: the figures for the Ki on Human σ1 Receptor and at Human σ2/TMEM97 receptor were < 100 nM and > 1000 nM, respectively.

Turning to `COC1CCN(Cc2cnc3c(-c4ccnc(C(F)(F)F)c4)cnn3c2)CC1` [Example 34, 6-((4-Methoxypiperidin-1-yl)methyl)-3-(2-(trifluoromethyl)pyridin-4-yl)pyrazolo[1,5-a]pyrimidine], the values for the Ki at Human σ1 Receptor and on Human σ2/TMEM97 receptor were < 100 nM and > 1000 nM, respectively.

As for `FC(F)(F)c1cc(-n2ccc3cc(CN4CCC5(CC4)COC5)cnc32)ccn1` [Example 38, 7-((1-(2-(Trifluoromethyl)pyridin-4-yl)-1H-pyrrolo[2,3-b]pyridin-5-yl)methyl)-2-oxa-7-azaspiro[3.5]nonane], the Ki on Human σ1 Receptor was < 100 nM; on Human σ2/TMEM97 receptor it was 100 to 500 nM.

Regarding `Cc1nc2c(-c3ccnc(C(F)(F)F)c3)cnn2c(C)c1CN1CCC2(CC1)COC2` [Example 37, 7-((5,7-Dimethyl-3-(2-(trifluoromethyl)pyridin-4-yl)pyrazolo[1,5-a]pyrimidin-6-yl)methyl)-2-oxa-7-azaspiro[3.5]nonane], the Ki is < 100 nM on Human σ1 Receptor and 500 to 1000 nM at Human σ2/TMEM97 receptor.

As for `c1ccc(C2CCN(Cc3cnc4c(-c5ccncc5)cnn4c3)CC2)cc1` [Example 5, 6-((4-Phenylpiperidin-1-yl)methyl)-3-(pyridin-4-yl)pyrazolo[1,5-a]pyrimidine], the Ki was < 100 nM at Human σ1 Receptor and > 1000 nM at Human σ2/TMEM97 receptor.

With `OCC1(CCl)CCN(Cc2cnc3c(-c4ccnc(C(F)(F)F)c4)cnn3c2)CC1` [Example 60, (4-(Chloromethyl)-1-((3-(2-(trifluoromethyl)pyridin-4-yl)pyrazolo[1,5-a]pyrimidin-6-yl)methyl)piperidin-4-yl)methanol], the Ki on Human σ1 Receptor was < 100 nM; on Human σ2/TMEM97 receptor it was 100 to 500 nM.

Take `FC(F)(F)c1ncccc1-n1ccc2cc(CN3CC4(CCOCC4)C3)cnc21` [Example 56, 2-((1-(2-(Trifluoromethyl)pyridin-3-yl)-1H-pyrrolo[2,3-b]pyridin-5-yl)methyl)-7-oxa-2-azaspiro[3.5]nonane]: the Ki on Human σ1 Receptor was < 100 nM; on Human σ2/TMEM97 receptor, > 1000 nM.

For `FC(F)(F)c1cnccc1-c1cnn2cc(CN3CCC4(CC3)COC4)cnc12` [Example 19, 7-((3-(3-(Trifluoromethyl)pyridin-4-yl)pyrazolo[1,5-a]pyrimidin-6-yl)methyl)-2-oxa-7-azaspiro[3.5]nonane], the Ki on Human σ1 Receptor was < 100 nM; on Human σ2/TMEM97 receptor, > 1000 nM.

With `FC(F)(F)c1cc(-c2cnn3cc(CN4CCOCC4)cnc23)ccn1` [Example 29, 4-((3-(2-(Trifluoromethyl)pyridin-4-yl)pyrazolo[1,5-a]pyrimidin-6-yl)methyl)morpholine], the Ki on Human σ1 Receptor and on Human σ2/TMEM97 receptor was > 1000 nM throughout.

`COCC1CCN(Cc2cnc3c(ccn3-c3ccnc(C(F)(F)F)c3)c2)CC1` [Example 39, 5-((4-(Methoxymethyl)piperidin-1-yl)methyl)-1-(2-(trifluoromethyl)pyridin-4-yl)-1H-pyrrolo[2,3-b]pyridine]: the Ki at Human σ1 Receptor is < 100 nM; at Human σ2/TMEM97 receptor, 100 to 500 nM.

For the molecule `FC(F)(F)c1ncccc1-n1ccc2cc(CN3CCC4(CCOC4)CC3)cnc21` [Example 54, 8-((1-(2-(Trifluoromethyl)pyridin-3-yl)-1H-pyrrolo[2,3-b]pyridin-5-yl)methyl)-2-oxa-8-azaspiro[4.5]decane], the Ki at Human σ1 Receptor is < 100 nM; at Human σ2/TMEM97 receptor, 500 to 1000 nM.

As to `FC(F)(F)c1ccc(-n2ccc3cc(CN4CCC5(CCOCC5)CC4)cnc32)cn1` [Example 48, 9-((1-(6-(Trifluoromethyl)pyridin-3-yl)-1H-pyrrolo[2,3-b]pyridin-5-yl)methyl)-3-oxa-9-azaspiro[5.5]undecane], the Ki on Human σ1 Receptor is < 100 nM; at Human σ2/TMEM97 receptor, 100 to 500 nM.

With `FC(F)(F)c1ccncc1-c1cnn2cc(CN3CCC4(CC3)COC4)cnc12` [Example 17, 7-((3-(4-(Trifluoromethyl)pyridin-3-yl)pyrazolo[1,5-a]pyrimidin-6-yl)methyl)-2-oxa-7-azaspiro[3.5]nonane], the Ki on Human σ1 Receptor was < 100 nM; at Human σ2/TMEM97 receptor, > 1000 nM.

Regarding `c1ccc(-c2cnn3cc(CN4CCC5(CC4)COC5)cnc23)nc1` [Example 18, 7-((3-(Pyridin-2-yl)pyrazolo[1,5-a]pyrimidin-6-yl)methyl)-2-oxa-7-azaspiro[3.5]nonane], the Ki on Human σ1 Receptor was 500 to 1000 nM; on Human σ2/TMEM97 receptor, > 1000 nM.

Consider `FC(F)(F)c1cc(-c2cnn3cc(CN4CCC(c5ccccc5)CC4)cnc23)ccn1` [Example 6, 6-((4-Phenylpiperidin-1-yl)methyl)-3-(2-(trifluoromethyl)pyridin-4-yl)pyrazolo[1,5-a]pyrimidine], for which the results for the Ki at Human σ1 Receptor and at Human σ2/TMEM97 receptor were < 100 nM and 100 to 500 nM, respectively.

Take `Cc1nn2cc(CN3CCC4(CC3)COC4)cnc2c1-c1ccnc(C(F)(F)F)c1` [Example 20, 7-((2-Methyl-3-(2-(trifluoromethyl)pyridin-4-yl)pyrazolo[1,5-a]pyrimidin-6-yl)methyl)-2-oxa-7-azaspiro[3.5]nonane]: the Ki on Human σ1 Receptor was in the range of 100 to 500 nM; at Human σ2/TMEM97 receptor, 500 to 1000 nM.

As to `FC(F)(F)c1cc(-c2cnn3cc(CN4CCN(C5COC5)CC4)cnc23)ccn1` [Example 35, 6-((4-(Oxetan-3-yl)piperazin-1-yl)methyl)-3-(2-(trifluoromethyl)pyridin-4-yl)pyrazolo[1,5-a]pyrimidine], the Ki on Human σ1 Receptor was 500 to 1000 nM; on Human σ2/TMEM97 receptor it was > 1000 nM.

For the molecule `CCOCC1CCN(Cc2cnc3c(-c4ccnc(C(F)(F)F)c4)cnn3c2)CC1` [Example 30, 6-((4-(Ethoxymethyl)piperidin-1-yl)methyl)-3-(2-(trifluoromethyl)pyridin-4-yl)pyrazolo[1,5-a]pyrimidine], the Ki on Human σ1 Receptor is < 100 nM; on Human σ2/TMEM97 receptor, 500 to 1000 nM.

These data come from patent publication US20240246966A1, “NEW PYRAZOLO[1,5-a] PYRIMIDINE DERIVATIVES AS SIGMA LIGANDS” (ACONDICIONAMIENTO TARRASENSE, priority 2021, published 2024).
